Measurements reported in ChEMBL document CHEMBL1135277, “Beta-carbolines as specific inhibitors of cyclin-dependent kinases” (Bioorg Med Chem Lett, 2002).

Key:
[1] = molecular target: Cyclin-dependent kinase 2 (Homo sapiens) (UniProt P24941); assay: Percentage inhibition against cyclin dependent kinase 2 (CDK 2) at a concentration of 50 uM
[2] = molecular target: Cyclin-dependent kinase 2/cyclin A (Homo sapiens, UniProt P24941); assay: Inhibition of Cyclin-dependent kinase 2-cyclin A; assay type: protein-complex assay
[3] = molecular target: Cyclin-dependent kinase 1/cyclin B (Homo sapiens, UniProt P06493); assay: Inhibition of Cell division cycle 2 (CDK1)-cyclin B; assay type: protein-complex assay
[4] = molecular target: Tyrosine-protein kinase Fyn (Homo sapiens, UniProt P06241); assay: Inhibition of Fyn kinase
Chain of Tyrosine-protein kinase Fyn (P06241 whole entry): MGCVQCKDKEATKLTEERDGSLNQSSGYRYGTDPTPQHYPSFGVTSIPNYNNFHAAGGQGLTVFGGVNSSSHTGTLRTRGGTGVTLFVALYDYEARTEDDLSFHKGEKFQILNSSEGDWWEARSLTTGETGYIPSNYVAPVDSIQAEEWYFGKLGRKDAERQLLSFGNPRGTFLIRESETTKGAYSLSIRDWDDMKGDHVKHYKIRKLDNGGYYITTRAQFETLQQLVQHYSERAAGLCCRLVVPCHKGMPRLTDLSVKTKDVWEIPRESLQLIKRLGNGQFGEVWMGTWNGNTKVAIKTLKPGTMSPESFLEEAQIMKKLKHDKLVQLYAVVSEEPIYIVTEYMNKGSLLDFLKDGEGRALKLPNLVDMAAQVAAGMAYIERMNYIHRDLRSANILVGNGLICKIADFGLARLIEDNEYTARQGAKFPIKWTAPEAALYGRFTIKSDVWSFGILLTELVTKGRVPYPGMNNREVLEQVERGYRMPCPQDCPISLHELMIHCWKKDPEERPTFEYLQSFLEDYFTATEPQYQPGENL

[5] = Inhibition of Mitogen-activated protein kinase
[6] = molecular target: Protein kinase C (PKC); assay: Inhibition of protein kinase C; assay type: protein assay
[7] = molecular target: Tyrosine-protein kinase Lyn (Homo sapiens, UniProt P07948); assay: Inhibition of Lyn tyrosine kinase
Chain of Tyrosine-protein kinase Lyn (P07948 whole entry): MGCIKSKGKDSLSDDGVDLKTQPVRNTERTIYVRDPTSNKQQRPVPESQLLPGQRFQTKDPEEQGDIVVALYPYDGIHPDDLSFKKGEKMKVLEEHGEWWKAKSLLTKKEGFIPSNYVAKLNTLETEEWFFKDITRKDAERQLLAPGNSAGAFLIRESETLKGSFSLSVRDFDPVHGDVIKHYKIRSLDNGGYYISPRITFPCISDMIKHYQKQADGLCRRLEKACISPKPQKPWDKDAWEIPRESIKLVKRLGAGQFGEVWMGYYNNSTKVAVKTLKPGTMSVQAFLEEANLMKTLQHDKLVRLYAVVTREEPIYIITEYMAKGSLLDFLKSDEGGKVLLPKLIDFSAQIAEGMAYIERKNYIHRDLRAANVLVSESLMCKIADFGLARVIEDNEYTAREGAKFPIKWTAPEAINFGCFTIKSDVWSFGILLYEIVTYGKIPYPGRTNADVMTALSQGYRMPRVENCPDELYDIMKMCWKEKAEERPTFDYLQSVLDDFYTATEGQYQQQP

[8] = molecular target: Tyrosine-protein kinase Lck (Homo sapiens, UniProt P06239); assay: Inhibition of p56 Lck tyrosine kinase
Chain of Tyrosine-protein kinase Lck (P06239 whole entry): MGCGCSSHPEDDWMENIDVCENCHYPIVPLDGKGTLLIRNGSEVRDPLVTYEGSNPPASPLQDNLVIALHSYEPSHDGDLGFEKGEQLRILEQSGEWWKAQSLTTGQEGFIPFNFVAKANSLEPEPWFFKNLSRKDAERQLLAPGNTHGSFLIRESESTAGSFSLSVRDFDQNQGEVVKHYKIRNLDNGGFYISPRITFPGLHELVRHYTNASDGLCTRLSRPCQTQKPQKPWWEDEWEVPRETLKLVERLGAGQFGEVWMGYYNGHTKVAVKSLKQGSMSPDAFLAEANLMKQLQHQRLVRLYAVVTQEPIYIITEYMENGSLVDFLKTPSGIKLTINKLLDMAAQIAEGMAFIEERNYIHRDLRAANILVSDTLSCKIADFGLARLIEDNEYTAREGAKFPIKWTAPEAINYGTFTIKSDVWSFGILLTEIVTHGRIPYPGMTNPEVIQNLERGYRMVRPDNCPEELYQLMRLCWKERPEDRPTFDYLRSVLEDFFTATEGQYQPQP

[9] = molecular target: Cyclin-dependent kinase 5/CDK5 activator 1 (Homo sapiens, UniProt Q00535); assay: Inhibition of Cyclin-dependent kinase 5-p35nck5a; assay type: protein-complex assay
Chain of Cyclin-dependent kinase 5/CDK5 activator 1 (Q00535 whole entry): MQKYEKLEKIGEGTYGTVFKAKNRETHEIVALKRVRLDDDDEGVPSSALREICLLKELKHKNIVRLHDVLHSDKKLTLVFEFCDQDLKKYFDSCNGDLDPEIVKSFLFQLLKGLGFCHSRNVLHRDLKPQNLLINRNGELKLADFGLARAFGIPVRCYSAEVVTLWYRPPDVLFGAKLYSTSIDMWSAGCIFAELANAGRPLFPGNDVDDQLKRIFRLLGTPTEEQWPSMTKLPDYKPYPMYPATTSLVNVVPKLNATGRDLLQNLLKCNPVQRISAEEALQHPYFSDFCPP
Chain of Cyclin-dependent kinase 5/CDK5 activator 1 (Q15078 whole entry, further chain): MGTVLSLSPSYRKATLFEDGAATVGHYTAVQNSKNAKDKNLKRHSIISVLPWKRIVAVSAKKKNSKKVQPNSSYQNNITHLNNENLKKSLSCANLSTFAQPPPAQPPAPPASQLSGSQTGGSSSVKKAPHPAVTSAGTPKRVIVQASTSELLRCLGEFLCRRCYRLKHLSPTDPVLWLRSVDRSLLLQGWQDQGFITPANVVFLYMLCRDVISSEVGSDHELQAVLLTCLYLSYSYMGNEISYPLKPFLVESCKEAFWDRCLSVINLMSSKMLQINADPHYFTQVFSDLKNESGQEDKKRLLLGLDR

Row | SMILES | inhibition [1] [%] | other results
1 | CCc1nccc2c1[nH]c1cc(F)ccc12 | 54 | –
2 | O=[N+]([O-])c1ccccc1-c1[nH]ccc2c3ccccc3nc1-2 | 43 | –
3 | Cc1ccc2c(c1)[nH]c1c(C)nccc12 | 23 | –
4 | CCOc1ccc2c(c1)[nH]c1c(C)nccc12 | 43 | –
5 | Clc1cccc(-c2nccc3c2[nH]c2ccccc23)c1 | 32 | –
6 | O=[N+]([O-])c1ccc(-c2[nH]ccc3c4ccccc4nc2-3)cc1Cl | 4 | –
7 | CCCNC(=O)Oc1ccc2c(c1)[nH]c1c(C)nccc12 | 61 | –
8 | Fc1ccc2c(c1)[nH]c1c(-c3ccccc3F)nccc12 | 55 | –
9 | c1ccc(-c2nccc3c2[nH]c2ccccc23)cc1 | 13 | –
10 | COc1ccc2c3c([nH]c2c1)C(C)=NCC3 | 10 | –
11 | CCCc1ncc(N)c2c1[nH]c1ccccc12 | 22 | –
12 | c1ccc2c(c1)[nH]c1cnccc12 | 37 | –
13 | Fc1ccc(-c2nccc3c2[nH]c2ccccc23)cc1 | 20 | –
14 | Cc1nccc2c1[nH]c1ccccc12 | 47 | –
15 | N#Cc1ccccc1-c1[nH]ccc2c3ccccc3nc1-2 | 8 | –
16 | CC(C)c1nccc2c1[nH]c1ccccc12 | 44 | –
17 | COc1cccc(-c2[nH]ccc3c4ccccc4nc2-3)c1 | 5 | –
18 | O=[N+]([O-])c1ccc(-c2[nH]ccc3c4ccccc4nc2-3)cc1 | 31 | –
19 | Cc1[nH]cnc1-c1nccc2c1[nH]c1ccccc12 | 89 | IC50 [2]: 6 µM; IC50 [3]: 25 µM; IC50 [4]: > 250 µM; IC50 [5]: > 250 µM; IC50 [6]: > 250 µM; IC50 [7]: > 250 µM
20 | COc1ccc2[nH]c3c(C(=O)O)nccc3c2c1 | 12 | –
21 | COc1ccc2[nH]c3c(C)nccc3c2c1 | 2 | –

Row | SMILES | inhibition [1] [%] | other results
22 | Brc1ccccc1-c1[nH]ccc2c3ccccc3nc1-2 | 10 | –
23 | Cc1[nH]cnc1-c1[nH]ccc2c3ccc(F)cc3nc1-2 | 51 | –
24 | Fc1cccc(-c2nccc3c2[nH]c2ccccc23)c1 | 6 | –
25 | Cc1nccc2c1[nH]c1cc(F)ccc12 | 65 | IC50 [2]: 30 µM; IC50 [3]: 42 µM; IC50 [4]: > 250 µM; IC50 [5]: > 250 µM; IC50 [6]: > 250 µM; IC50 [7]: > 250 µM; IC50 [8]: > 250 µM
26 | Clc1ccc(-c2nccc3c2[nH]c2ccccc23)cc1 | 48 | –
27 | CCCc1nccc2c1[nH]c1ccccc12 | 43 | –
28 | Cc1nccc2c1[nH]c1cc(OCCN3C(=O)c4ccccc4C3=O)ccc12 | 8 | –
29 | c1ccc2c(c1)[nH]c1c(-c3c[nH]cn3)nccc12 | 30 | –
30 | COc1ccc(-c2nccc3c2[nH]c2ccccc23)cc1 | 6 | –
31 | Cc1nccc2c1[nH]c1cccc(F)c12 | 55 | –
32 | Cc1nccc2c1[nH]c1ccc(F)cc12 | 46 | –
33 | Fc1ccccc1-c1[nH]ccc2c3ccccc3nc1-2 | 64 | –
34 | O=[N+]([O-])c1cccc(-c2[nH]ccc3c4ccccc4nc2-3)c1 | 19 | –
35 | CC(=O)OCCOc1ccc2c(c1)[nH]c1c(C)nccc12 | 23 | –
36 | COc1ccc2c(c1)[nH]c1c(C)nccc12 [HARMINE] | 62 | IC50 [2]: 35 µM; IC50 [4]: > 250 µM; IC50 [5]: > 250 µM; IC50 [6]: > 250 µM; IC50 [7]: > 250 µM; IC50 [8]: > 250 µM
37 | CCOC(COc1ccc2c(c1)[nH]c1c(C)nccc12)OCC | 1 | –
38 | Cc1nccc2c1[nH]c1ccc(OC(=O)c3ccccc3)cc12 | 2 | –
39 | CCCc1nccc2c1[nH]c1cc(F)ccc12 | 60 | –
40 | Clc1ccccc1-c1[nH]ccc2c3ccccc3nc1-2 | 69 | –
41 | Cc1nccc2c1[nH]c1cccc(C)c12 | 30 | –
42 | Cc1nccc2c1[nH]c1cc(OCC(N)=O)ccc12 | 15 | –

Row | SMILES | inhibition [1] [%] | other results
43 | Cc1nccc2c1[nH]c1cc(OC(=O)NC3CCCCC3)ccc12 | 53 | –
44 | Cc1[nH]ccc2c1[nH]c1cc(=O)ccc12 | 69 | –
45 | COC(=O)Cc1nccc2c1[nH]c1ccccc12 | 11 | –
46 | CC1=NCCc2c1[nH]c1cc(O)ccc21 | 13 | –
47 | Cc1ccc2c(c1)[nH]c1c(-c3ccccc3F)nccc12 | 36 | –
48 | O=[N+]([O-])c1ccc(Cl)c(-c2[nH]ccc3c4ccccc4nc2-3)c1 | 70 | IC50 [2]: 22 µM; IC50 [3]: 45 µM; IC50 [9]: > 1200 µM; IC50 [4]: > 250 µM; IC50 [6]: > 250 µM; IC50 [7]: > 250 µM
49 | Cc1nccc2c1[nH]c1cc(OCC(=O)OCc3ccccc3)ccc12 | 57 | –
50 | Cc1nccc2c1[nH]c1cc(OCCO)ccc12 | 4 | –
51 | Fc1ccc2c(c1)[nH]c1c(-c3ccccc3)nccc12 | 57 | –
52 | N#Cc1cccc(-c2nccc3c2[nH]c2ccccc23)c1 | 31 | –
53 | Cc1ccc2[nH]c3c(C)nccc3c2c1 | 15 | –
54 | Cc1nccc2c1[nH]c1cc(OCCC3(C)OCC(C)(C)CO3)ccc12 | 27 | –
55 | Cc1ccc(-c2[nH]ccc3c4ccccc4nc2-3)c(C)c1 | 5 | –
56 | FC(F)(F)c1[nH]ccc2c3ccccc3nc1-2 | 39 | –
57 | Fc1ccc(-c2[nH]ccc3c4ccccc4nc2-3)c(F)c1 | 56 | –
58 | Cc1nccc2c1[nH]c1cc(Oc3ncc(C(F)(F)F)cc3Cl)ccc12 | 10 | –
59 | CCCCOc1ccc2c(c1)[nH]c1c(C)nccc12 | 50 | –
60 | CC(C)(C)c1[nH]ccc2c3ccccc3nc1-2 | 50 | –
61 | N#Cc1ccc(-c2nccc3c2[nH]c2ccccc23)cc1 | 29 | –
62 | Cc1nccc2c1[nH]c1cc(OCCOC(=O)c3ccccc3)ccc12 | 13 | –
